Laboratory results published in patent publication US10844101B2, “Plant-derived elastin binding protein ligands and methods of using the same” (ELASTOGENESIS, LLC, priority 2005, dated 2020).
“Also recorded” adds a separate entry of the source.

Experiments:
[1] = tested on: human skin explants; assay: Organ cultures of human skin explants stained with Movat pentachrome stain; format: cell-based
[2] = tested on: human fibroblasts derived from normal human skin; assay: [3H]-valine metabolic labeling and assay of newly deposited NaOH-insoluble elastin in fibroblast cultures; format: cell-based; settings: [3H]-valine labeling 3 days; for net deposition of insoluble elastin, maximum over control values: expressed per culture dish, dose dependent
Description: Fibroblasts were densely plated (50×10^5/dish) and grown to confluency in 10 cm cell culture dishes in quadruplicate. 20 μCi of [^3H]-valine was added to each dish along with fresh media. Cultures were then incubated for 72 hours and insoluble elastin was assessed separately in each culture.

[3] = tested on: elastin gene in adult dermal fibroblasts; assay: RT-PCR with specific tropoelastin probe (transcription of the elastin gene); format: cell-based, human; settings: serum-free medium and 10% FBS
Excerpt: Using a BLAST search through the National Library of Medicine website, we identified the IGVAPG (SEQ ID NO. 13) domain in the amino acid sequence for a transcription factor of Japanese rice, which also reflects the common EBP-binding GXXPG (SEQ ID NO. 2) motif found in elastin and laminin. We used RT-PCR to measure transcription of the elastin gene by peptides of the invention.

[4] = tested on: human dermal fibroblasts; assay: Immunostaining with anti-tropoelastin antibody and morphometric analysis of elastic fiber deposition in 7-day dermal fibroblast cultures; format: cell-based; settings: for elastogenesis level compared with VGVAPG or EBPL-1 treated cultures: 7 day-old primary cultures of dermal fibroblasts; for extracellular elastic fibers deposited (anti-tropoelastin immunostaining) / levels of intra- and extracellular tropoelastin (immunocytochemical staining): 7 days; for extracellular elastic fibers deposited (anti-tropoelastin immunostaining): fibroblasts, VGVAPG 5 μg/mL, EBPL-2 5 μg/mL, EBPL-3 10 μg/mL; for more elastic fibers / tropoelastin than control cultures, maximally produced (quantitative morphometric analysis of immuno-detectable tropoelastin): maximum effect vs control
Description: In all experiments except those using CDBR, consecutive passages 3-7 were tested. Cells were incubated in the presence and absence of VGVAPG (SEQ ID NO. 1) (5 μg/mL), EBPL-2 (5 μg/mL) and EBPL-3 (10 μg/mL). In experiments using CDRB cell passage 3 was tested, cells were densely plated (50×10^6 cells/dish) to rich immediate confluency and than cultured for 7 days in the presence and absence of 25 μg/ml CDBR (added at day 1 and 3).

[5] = tested on: dermal fibroblasts; assay: Cellular proliferation by [3H]-thymidine incorporation; format: cell-based, human; settings: dermal fibroblasts vs control
Excerpt: Results of this calculation, showing a more profound effect of EBPL-2 on net deposition of insoluble elastin per culture, led to the hypothesis that EBPL-2, similarly to VGVAPG (SEQ ID NO. 1), also stimulates cellular proliferation.

[6] = organ cultures of human skin biopsies
[7] = adult dermal fibroblasts, 7 day old cultures

Row | Substance | elastic fibers (black stain) in skin explant organ cultures ([1]; 10-day old organ cultures, person) | dilatation of existing dermal capillaries [1, 6] | production of new elastic fibers by pericytes [1, 6] | more radioactively labeled insoluble elastin as compared to non-treated fibroblasts ([2]; 10 μg/mL, normalized per DNA content) | net deposition of insoluble elastin, maximum over control values [2] | transcription of the elastin gene [3] | elastogenesis level compared with VGVAPG or EBPL-1 treated cultures [4] | extracellular elastic fibers deposited (anti-tropoelastin immunostaining) [4] | more elastic fibers / tropoelastin than control cultures, maximally produced (quantitative morphometric analysis of immuno-detectable tropoelastin) [4, 7] | more tropoelastin than maximum ProK-60-induced levels ([4]; adult dermal fibroblasts, 7 day old cultures, maximum vs maximum ProK-60) | levels of intra- and extracellular tropoelastin (immunocytochemical staining) ([4]; adult dermal fibroblasts) | incorporation of [3H]-thymidine (cellular proliferation) [5]
1 | IGVAPG (Synthetic derived from Oryza sativa) [EBPL-2] | contained more elastic fibers | stimulates dilatation of existing capillaries | stimulated production of new elastic fibers by pericytes | 36% | 175% | increased transcription of the elastin gene | capable of inducing elastogenesis to the levels that exceed those obtained in cultures treated with VGVAPG; also recorded: higher net deposition of tropoelastin than their counterparts cultured with VGVAPG | deposition of thick extracellular elastic fibers | 710% | 141% | enhanced levels of intra- and extracellular tropoelastin | higher than control incorporation of [^3H]-thymidine
2 | IGVAPGAAAAAIGVAPG (Synthetic derived from Oryza sativa) [EBPL-3] | – | – | – | – | – | – | capable of inducing elastogenesis to the levels that exceed those obtained in cultures treated with VGVAPG | deposition of thick extracellular elastic fibers | – | – | – | –
3 | VGVAPG (Synthetic derived from Oryza sativa) [elastin receptor ligand hexapeptide obtained from Sigma, reference compound] | – | – | – | – | 109% | stimulated transcription | – | very thin extracellular elastic fibers at levels greater than the control levels | 457% | – | enhanced levels of intra- and extracellular tropoelastin | higher than control incorporation of [^3H]-thymidine
4 | VGVAPGAAAAAVGVAPG (Synthetic derived from Oryza sativa) [EBPL-1] | – | – | – | – | – | – | – | very thin extracellular elastic fibers at levels greater than the control levels | – | – | – | –
